The NIST ThermoML archive (doi:10.1016/j.fluid.2013.02.005)
Numbers after ± are expanded uncertainties.

Key:
[1] = Boiling temperature at pressure P; settings: 101.33 kPa; Liquid; Ebulliometric method (Recirculating still)
[2] = for surface tension liquid-gas: Maximal bubble pressure; for mass density: 298.15 K, 101.33 kPa, Vibrating tube method; for mass density / vapor or sublimation pressure: Liquid; for vapor or sublimation pressure: Ebulliometric method (Recirculating still)
[3] = refractive index (Na D-line) (dimensionless); settings: 298.15 K; 101.33 kPa; Liquid; Standard Abbe refractometry
[4] = xn = mol fraction of the nth substance listed; settings: Maximal bubble pressure

## Cc1ccc(C)o1 [2,5-dimethylfuran]
[1]
  Boiling temperature at pressure P: 93.68 ± 0.02 °C
[2]; 283.15 K
  surface tension liquid-gas: 26.34 ± 0.2 mN/m
[2]
  mass density: 895.63 ± 0.08 kg/m3
[2]; 303.15 K
  surface tension liquid-gas: 24.05 ± 0.19 mN/m
[2]; 330.15 K
  surface tension liquid-gas: 20.58 ± 0.17 mN/m
[2]; 345.24 K
  vapor or sublimation pressure: 50 ± 0.3 kPa
[2]; 357.21 K
  vapor or sublimation pressure: 75 ± 0.6 kPa
[2]; 364.37 K
  vapor or sublimation pressure: 94 ± 0.7 kPa
[3]
  refractive index: 1.44012 ± 0.00035

## CC(C)OC(C)C [diisopropyl ether] + Cc1ccc(C)o1
[4]; 283.15 K, x1 = 1
  surface tension liquid-gas: 18.88 ± 0.17 mN/m
[4]; 330.15 K, x1 = 1
  surface tension liquid-gas: 13.88 ± 0.14 mN/m

## Cc1ccc(C)o1 [2,5-dimethylfuran] + CC(C)OC(C)C
[4]; 283.15 K, x2 = 0
  surface tension liquid-gas: 26.34 ± 0.2 mN/m
[4]; 283.15 K, x2 = 0.067
  surface tension liquid-gas: 24.79 ± 0.2 mN/m
[4]; 283.15 K, x2 = 0.112
  surface tension liquid-gas: 24.27 ± 0.19 mN/m
[4]; 283.15 K, x2 = 0.234
  surface tension liquid-gas: 23.31 ± 0.19 mN/m
[4]; 283.15 K, x2 = 0.323
  surface tension liquid-gas: 22.56 ± 0.18 mN/m
[4]; 283.15 K, x2 = 0.42
  surface tension liquid-gas: 21.87 ± 0.18 mN/m
[4]; 283.15 K, x2 = 0.52
  surface tension liquid-gas: 21.31 ± 0.18 mN/m
[4]; 283.15 K, x2 = 0.626
  surface tension liquid-gas: 20.86 ± 0.18 mN/m
[4]; 330.15 K, x2 = 0
  surface tension liquid-gas: 20.58 ± 0.17 mN/m
[4]; 330.15 K, x2 = 0.153
  surface tension liquid-gas: 19.28 ± 0.17 mN/m
[4]; 330.15 K, x2 = 0.192
  surface tension liquid-gas: 18.93 ± 0.17 mN/m
[4]; 330.15 K, x2 = 0.245
  surface tension liquid-gas: 18.31 ± 0.16 mN/m
[4]; 330.15 K, x2 = 0.342
  surface tension liquid-gas: 17.66 ± 0.16 mN/m
[4]; 330.15 K, x2 = 0.434
  surface tension liquid-gas: 17.01 ± 0.16 mN/m
[4]; 330.15 K, x2 = 0.543
  surface tension liquid-gas: 16.48 ± 0.15 mN/m
[4]; 330.15 K, x2 = 0.664
  surface tension liquid-gas: 15.79 ± 0.15 mN/m
[4]; 330.15 K, x2 = 0.782
  surface tension liquid-gas: 15.16 ± 0.15 mN/m
[4]; 330.15 K, x2 = 0.897
  surface tension liquid-gas: 14.65 ± 0.15 mN/m

## CC(C)OC(C)C [diisopropyl ether]
[1]
  Boiling temperature at pressure P: 68.52 ± 0.02 °C
[2]; 283.15 K
  surface tension liquid-gas: 18.88 ± 0.17 mN/m
[2]
  mass density: 718.75 ± 0.14 kg/m3
[2]; 303.15 K
  surface tension liquid-gas: 16.7 ± 0.16 mN/m
[2]; 307.64 K
  vapor or sublimation pressure: 30.01 ± 0.08 kPa
[2]; 311.53 K
  vapor or sublimation pressure: 35.01 ± 0.08 kPa
[2]; 314.98 K
  vapor or sublimation pressure: 40.01 ± 0.09 kPa
[2]; 318.08 K
  vapor or sublimation pressure: 45.01 ± 0.09 kPa
[2]; 320.94 K
  vapor or sublimation pressure: 50.01 ± 0.1 kPa
[2]; 321.03 K
  vapor or sublimation pressure: 50 ± 0.3 kPa
[2]; 323.56 K
  vapor or sublimation pressure: 55.01 ± 0.1 kPa
[2]; 326 K
  vapor or sublimation pressure: 60.01 ± 0.1 kPa
[2]; 328.29 K
  vapor or sublimation pressure: 65.01 ± 0.11 kPa
[2]; 330.15 K
  surface tension liquid-gas: 13.88 ± 0.14 mN/m
[2]; 330.45 K
  vapor or sublimation pressure: 70.01 ± 0.11 kPa
[2]; 332.48 K
  vapor or sublimation pressure: 75.01 ± 0.12 kPa
[2]; 332.65 K
  vapor or sublimation pressure: 75 ± 0.5 kPa
[2]; 334.41 K
  vapor or sublimation pressure: 80.01 ± 0.12 kPa
[2]; 336.23 K
  vapor or sublimation pressure: 85.01 ± 0.13 kPa
[2]; 339.57 K
  vapor or sublimation pressure: 94 ± 0.7 kPa
[2]; 339.65 K
  vapor or sublimation pressure: 95.01 ± 0.14 kPa
[2]; 341.52 K
  vapor or sublimation pressure: 100.89 ± 0.14 kPa
[3]
  refractive index: 1.36652 ± 0.00035
